“Also recorded” adds a separate entry of the source.
Experiments:
RBL-2H3 cells [1] = test: Degranulation (β-hexosaminidase release) assay; type: cell-based; conditions: Rattus norvegicus
Procedure: (§1) To assess degranulation and cytokine release, RBL-2H3 cells were plated and stimulated with 20 nM thapsigargin/20 nM TPA for 20 hr in the presence or absence of compound of Formula (I) or Formula (II). Media was collected and assayed for the release of β-hexosaminidase or for the release of the inflammatory mediator cytokine TNF-α. The β-hexosaminidase enzymatic assay was performed by adding 200 μL 1 mM p-nitrophenyl-acetyl-glucosamide substrate (Sigma #N9376) in 0.05M Na Citrate (pH 4.5) to 50 μL of conditioned medium, incubating for 60 min at 37° C., then adding 500 μL 0.05M Na carbonate, 0.05M Na bicarbonate pH 10.5, mixing thoroughly, and reading the absorbance at 405 nm in a BioRad plate reader. The TNF-α release assay was performed using the Rat Tumor Necrosis Factor-a Ultrasensitive ELISA Kit from BioSource.

SOCE in rat T cells = test: SOCE in rat T cells; type: cell-based; conditions: T-cell, FIG. 5, read-out: IC50 for inhibition of SOCE
hOrail/hSTIM1 [2] = target: T1, hOrail/hSTIM1 (Homo sapiens, UniProt Q96D31); test: Monster ICRAC in cells stably overexpressing hOrail/hSTIM1; type: cell-based; conditions: FIG. 15
T1 construct: expressed in transfected cells

rat T cells [3] = test: IL-2 secretion in rat T cells; type: cell-based; conditions: T-cell, FIG. 5, read-out: IC50 for inhibition of IL-2 secretion
[4] = tested on: store-operated calcium entry in RBL-2H3 cells; test: Fluorescence (FLUO-4/FLIPR384) store-operated calcium entry screening assay; type: cell-based, rat
Procedure: Fluorescence-based assays were used for screening the compounds described herein, such as compounds of Formula (I) and Formula (II), which modulate intracellular calcium.
RBL-2H3 cells plated in 384-well plates were loaded for 45 min with FLUO-4-AM (2 μM final concentration) in HBSS. Cells were washed and placed in a nominally Ca^2+- and Mg^2+-free Hanks solution. One minute later, a test agent or vehicle was added. After a 15 minute incubation period, 1 μM thapsigargin (Tg) was added to inhibit the ER Ca^2+ pump and discharge intracellular Ca^2+ stores. Fifteen minutes after addition of Tg, store-operated calcium entry was initiated by adding external Ca^2+ to a final concentration of 1.8 mM and the cells monitored for a further 10-15 minutes. Calcium levels were monitored throughout the assay using a FLIPR^384 (Molecular Devices fluorimetric imaging plate reader for high throughput screening).
A similar screening assay procedure was used with HEK293 and RBL-2H3 cells.
The kinetic data from the FLIPR^384 were analyzed and then stored in a relational database (ActivityBase; IDBS). Ten quantitative parameters were calculated that define various aspects of the store-operated calcium entry response. These parameters are as follows:
Up slope: linear regression of the increase in RFU from 2 to 30 sec after addition of Ca^2+.
Combinations of these parameters were used to characterize the compounds of Formula (I). Compounds were retested under identical conditions to confirm their activity. Compounds with confirmed activity were then analyzed for concentration-dependent effects, and subsequently, those compounds displaying concentration-dependent effects were categorized as compounds that modulate intracellular calcium.

rat T cells [5] = test: Cell proliferation of rat T cells; type: cell-based; conditions: FIG. 5, read-out: IC50 for inhibition of cell proliferation
[6] = DNBS-induced colitis in rats (ulcerative colitis model for IBD); type: in vivo, rat; conditions: FIG. 20
Procedure: Procedure: Male Wistar rats weighing 200±20 g are fasted for 24 hours prior to use. Distal colitis is induced by intra-colonic instillation of DNBS (2,4-dinotrobenzene sulfonic acid, 20 mg in 0.5 ml ethanol 30%) with a catheter of 12 cm in length, followed by gentle injection of air (2 ml) through the catheter to ensure that the solution remain in the colon. The animals are divided into groups of 5 each. Test substance and vehicle are administered either daily or twice daily by appropriate route of administration 24 hour and 1 hour before DNBS instillation and then for 6 consecutive days thereafter. One normal control group is treated with 0.9% NaCl alone without DNBS challenge. […] During the experiment, body weight, fecal occult blood and stool consistency are monitored daily. Furthermore, when the abdominal cavity is opened before removal of the colon, adhesions between the colon and other organs are noted as is the presence of colonic ulceration after removal and weighing of each colon (a macroscopic damage score is recorded according to established score criteria). The colon-to-body weight ratio is calculated according to the formula: Colon (g)/BW×100. The “Net” increase in ratio of Vehicle-control+DNBS group relative to Vehicle-control group is used as a base for comparison with individual treated groups and expressed as “Dec. […]

RBL-2H3 cells [7] = test: TNF-α release assay (ELISA); type: cell-based; conditions: Rattus norvegicus; RBL-2H3 cells induced with TG/TPA; FIG. 3; read-out: IC50 for inhibition of TNF-alpha release
Procedure: as §1

hOrail/hSTIM1 [8] = target: T1, hOrail/hSTIM1; test: Recombinant hOrail/hSTIM1-dependent Ca2+ entry in stable cells; type: cell-based; conditions: FIG. 14
primary human T cells = test: Con A-induced cell proliferation of primary human T cells; type: cell-based; conditions: FIG. 6, read-out: IC50 for inhibition of Con A-induced cell proliferation
[9] = Rat collagen induced arthritis (CIA) model, liver weight; type: in vivo; conditions: given orally, FIG. 11
Procedure: 40 rats are injected with collagen to get 40 solid responders on days 10,11 for 4 groups of 10. Four nonimmunized animals serve as normal controls.
Collagen is prepared by making a 4 mg/ml solution in 0.01N Acetic acid. Equal volumes of collagen and Freund's incomplete adjuvant, are emulsified by hand mixing until a bead of this material holds its form when placed in water.
Animals (10 rats/group for arthritis, 4 rats/group for normal control).
Animals in groups 2-5 are anesthetized with isoflurane and given collagen injections (DO); each animal gets 300 μl of the mixture spread over 3 subcutaneous sites on the back. On Day 6 (D6) the animals are anesthetized again and given a second collagen injection, as before.
Rats are weighed on Days 0, 3, 6, and 9-17 of arthritis, and caliper measurements of ankles taken every day beginning on Day 9. Final body weights are taken on Day 17 of arthritis. On Day 17, all animals are anesthetized for terminal blood draw and then euthanized. Subsequently, hind paws and knees are removed, the hind paws are weighed and then (with knees) placed in formalin for processing for microscopy. Livers, spleen and thymus and kidneys are also removed, trimmed of extraneous tissue and weighed. Kidneys are retained in formalin for histopathology.
Sampling will occur over 1 day and involves groups 2-5 with samples retained from all groups.

SOCE = test: Selectivity profile; conditions: FIG. 8
[10] = Skin transplant rejection in Lewis rats; type: in vivo, rat; conditions: FIG. 18
HEK[STIM1] cells = test: STIM1-dependent Ca2+ entry in STIM1-overexpressing cells; type: cell-based, human; conditions: HEK293 overexpressing STIM1, no Tg store depletion; FIG. 13
Procedure: To test whether the Ca^2+ entry pathway activated by STIM1 overexpression is pharmacologically similar to endogenous SOCE, HEK[STIM1] cells were pre-incubated with increasing doses of 2-APB and STIM1-dependent Ca^2+ entry was measured.

T1 sequence (Q96D31 whole entry): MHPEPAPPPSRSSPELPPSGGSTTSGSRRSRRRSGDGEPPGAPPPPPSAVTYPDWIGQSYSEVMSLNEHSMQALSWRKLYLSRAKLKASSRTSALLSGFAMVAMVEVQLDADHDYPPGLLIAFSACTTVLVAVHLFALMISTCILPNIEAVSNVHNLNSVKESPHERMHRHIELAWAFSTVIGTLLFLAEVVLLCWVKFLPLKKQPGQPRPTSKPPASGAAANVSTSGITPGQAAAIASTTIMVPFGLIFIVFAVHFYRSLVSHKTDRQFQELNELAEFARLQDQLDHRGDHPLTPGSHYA
T1 sequence (Q13586 23-685 partner): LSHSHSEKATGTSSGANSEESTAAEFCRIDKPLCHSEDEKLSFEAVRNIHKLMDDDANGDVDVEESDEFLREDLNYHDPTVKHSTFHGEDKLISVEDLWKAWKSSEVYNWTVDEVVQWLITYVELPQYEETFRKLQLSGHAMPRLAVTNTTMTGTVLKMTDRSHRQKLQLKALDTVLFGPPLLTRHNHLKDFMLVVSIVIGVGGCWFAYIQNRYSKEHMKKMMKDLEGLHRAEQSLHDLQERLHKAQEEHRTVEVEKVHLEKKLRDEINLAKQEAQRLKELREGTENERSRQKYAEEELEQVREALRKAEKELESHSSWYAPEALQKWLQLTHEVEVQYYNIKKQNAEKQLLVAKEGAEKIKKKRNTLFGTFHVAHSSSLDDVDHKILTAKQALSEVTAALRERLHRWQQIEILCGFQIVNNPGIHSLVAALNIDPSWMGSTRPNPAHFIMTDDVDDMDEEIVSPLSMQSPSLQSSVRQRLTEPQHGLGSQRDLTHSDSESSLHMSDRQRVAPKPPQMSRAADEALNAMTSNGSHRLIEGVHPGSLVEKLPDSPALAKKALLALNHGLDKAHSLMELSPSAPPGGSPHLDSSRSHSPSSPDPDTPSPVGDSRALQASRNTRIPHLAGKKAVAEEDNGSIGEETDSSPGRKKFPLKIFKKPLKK

IC50 (RBL-2H3 cells [1]; RBL-2H3, 2 hour TG/TPA induction in HBSS+1% serum, 10 minute pretreatment, FIG. 4, read-out: IC50 for inhibition of degranulation, presence of serum): 1000 to 3000 nM | IC50 (RBL-2H3 cells [1]; RBL-2H3, 2 hour TG/TPA induction in HBSS, 10 minute pretreatment, FIG. 4, read-out: apparent IC50 for inhibition of degranulation, absence of serum): < 300 nM | IC50 (RBL-2H3 cells [1]; RBL-2H3 cells induced with TG/TPA, FIG. 3, read-out: IC50 for inhibition of degranulation): 2600 nM | IC50 (SOCE in rat T cells): ~2400 nM | effect on Monster ICRAC (hOrail/hSTIM1 [2]): inhibit | IC50 (rat T cells [3]): ~2500 nM | IC50 ([4]; Rattus norvegicus, Up slope parameter, RBL-2H3 cells): 2.2 µM | IC50 (RBL-2H3 cells [7]): 3300 nM | effect on recombinant hOrail/hSTIM1-dependent Ca2+ entry (hOrail/hSTIM1 [8]): inhibition | reduction in liver weight [9]: no liver weight reduction
SMILES: O=C(Nc1scc(-c2ccc(Br)cc2)c1C(=O)O)c1ccc(F)cc1 [Compound 1, 2-(4-fluorobenzamido)-4-(4-bromophenyl)thiophene-3-carboxylic acid]
inhibition of the initial kinetics of the CRAC channel response ([4]; RBL-2H3 cells, FIG. 2): concentration-dependent inhibition | inhibition at 10 µM ([4]; Rattus norvegicus, RBL-2H3, 10 μM, cell line not stated): > 70% | IC50 (rat T cells [5]): ~4300 nM | inflammation in the rat ulcerative colitis model for IBD [6]: inhibition of inflammation | IC50 (primary human T cells): ~3700 nM | selectivity profile (SOCE): selective inhibitor of SOCE | rejection of skin transplants [10]: delayed rejection | effect on STIM1-dependent Ca2+ entry (HEK[STIM1] cells): concentration dependent inhibition; also recorded: blocked
